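Where inhibition never reached the appropriate level, the endpoint shown equals the highest concentration tested. Otherwise, values were interpolated linearly from a five-concentration, 48-hour dose response in 96-well plates. GI50 marks 50% less growth. At the TGI there is no net growth.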
Experiments:
Experiment in all cases: inhibition of tumour cell growth, NCI panel, 48 h
NCI-H226 lung = test system: NCI-H226 lung
NCI-H23 lung = test system: NCI-H23 lung
NCI-H460 lung = test system: NCI-H460 lung
NCI-H522 lung = test system: NCI-H522 lung
NCI/ADR-RES ovarian = test system: NCI/ADR-RES ovarian
OVCAR-3 ovarian = test system: OVCAR-3 ovarian
OVCAR-4 ovarian = test system: OVCAR-4 ovarian
OVCAR-5 ovarian = test system: OVCAR-5 ovarian
OVCAR-8 ovarian = test system: OVCAR-8 ovarian
PC-3 prostate = test system: PC-3 prostate
RPMI-8226 leukemia = test system: RPMI-8226 leukemia
RXF 393 renal = test system: RXF 393 renal
SF-268 CNS = test system: SF-268 CNS
SF-295 CNS = test system: SF-295 CNS
SF-539 CNS = test system: SF-539 CNS
SK-MEL-2 melanoma = test system: SK-MEL-2 melanoma
SK-MEL-28 melanoma = test system: SK-MEL-28 melanoma
SK-MEL-5 melanoma = test system: SK-MEL-5 melanoma
SK-OV-3 ovarian = test system: SK-OV-3 ovarian
SN12C renal = test system: SN12C renal
SNB-19 CNS = test system: SNB-19 CNS
SNB-75 CNS = test system: SNB-75 CNS
SR leukemia = test system: SR leukemia
SW-620 colon = test system: SW-620 colon
T-47D breast = test system: T-47D breast
TK-10 renal = test system: TK-10 renal
U251 CNS = test system: U251 CNS
UACC-257 melanoma = test system: UACC-257 melanoma
UACC-62 melanoma = test system: UACC-62 melanoma
UO-31 renal = test system: UO-31 renal

Structure (SMILES): COc1ccccc1/C=C/c1cccc(NC(=S)NCCCCN(C)C)c1
- TGI (NCI-H226 lung): 27.4 µM
- GI50 (NCI-H23 lung): 15.2 µM
- TGI (NCI-H23 lung): 30.4 µM
- GI50 (NCI-H460 lung): 12.5 µM
- TGI (NCI-H460 lung): 27.8 µM
- GI50 (NCI-H522 lung): 15.2 µM
- TGI (NCI-H522 lung): 31.3 µM
- GI50 (NCI/ADR-RES ovarian): 14.9 µM
- TGI (NCI/ADR-RES ovarian): 37.9 µM
- GI50 (OVCAR-3 ovarian): 10.7 µM
- TGI (OVCAR-3 ovarian): 26 µM
- GI50 (OVCAR-4 ovarian): 14.9 µM
- TGI (OVCAR-4 ovarian): 29.6 µM
- GI50 (OVCAR-5 ovarian): 15.3 µM
- TGI (OVCAR-5 ovarian): 29 µM
- GI50 (OVCAR-8 ovarian): 17 µM
- TGI (OVCAR-8 ovarian): 34.5 µM
- GI50 (PC-3 prostate): 14.2 µM
- TGI (PC-3 prostate): 30.5 µM
- GI50 (RPMI-8226 leukemia): 17.2 µM
- TGI (RPMI-8226 leukemia): 51.8 µM
- GI50 (RXF 393 renal): 11.8 µM
- TGI (RXF 393 renal): 26.2 µM
- GI50 (SF-268 CNS): 15.3 µM
- TGI (SF-268 CNS): 34.5 µM
- GI50 (SF-295 CNS): 12.5 µM
- TGI (SF-295 CNS): 26.1 µM
- GI50 (SF-539 CNS): 13.4 µM
- TGI (SF-539 CNS): 26.2 µM
- GI50 (SK-MEL-2 melanoma): 16.1 µM
- TGI (SK-MEL-2 melanoma): 31.3 µM
- GI50 (SK-MEL-28 melanoma): 15.9 µM
- TGI (SK-MEL-28 melanoma): 29.5 µM
- GI50 (SK-MEL-5 melanoma): 14 µM
- TGI (SK-MEL-5 melanoma): 26.9 µM
- GI50 (SK-OV-3 ovarian): 17 µM
- TGI (SK-OV-3 ovarian): 35.1 µM
- GI50 (SN12C renal): 15 µM
- TGI (SN12C renal): 29 µM
- GI50 (SNB-19 CNS): 17.5 µM
- TGI (SNB-19 CNS): 34.7 µM
- GI50 (SNB-75 CNS): 12.1 µM
- TGI (SNB-75 CNS): 27.2 µM
- GI50 (SR leukemia): 11.7 µM
- TGI (SR leukemia): 35.4 µM
- GI50 (SW-620 colon): 14.5 µM
- TGI (SW-620 colon): 31.7 µM
- GI50 (T-47D breast): 11.6 µM
- TGI (T-47D breast): 27.3 µM
- GI50 (TK-10 renal): 17.3 µM
- TGI (TK-10 renal): 32.3 µM
- GI50 (U251 CNS): 17.6 µM
- TGI (U251 CNS): 33.3 µM
- GI50 (UACC-257 melanoma): 16.3 µM
- TGI (UACC-257 melanoma): 31.7 µM
- GI50 (UACC-62 melanoma): 15.5 µM
- TGI (UACC-62 melanoma): 29.3 µM
- GI50 (UO-31 renal): 13.7 µM
- TGI (UO-31 renal): 27.7 µM

Source: PubChem BioAssay (NCI)
